Reference: PMC8571316 (Scientific Reports, 2021)
Peptide text beside a SMILES is read from it. * marks the point of attachment. Biotin = O=C1N[C@H]2[C@H](CS[C@H]2CCCCC(=O)*)N1; PEG4 = NCCOCCOCCOCCOCCC(=O)O

Each compound was assayed on Influenza HA.
Type: binding
For CC(C)C[C@H](NC(=O)[C@H](CC(=O)O)NC(=O)[C@H](CCC(=O)O)NC(=O)[C@H](Cc1c[nH]c2ccccc12)NC(=O)[C@H](CCC(=O)O)NC(=O)[C@H](CC(C)C)NC(=O)[C@H](CC(N)=O)NC(=O)[C@H](Cc1ccccc1)NC(=O)[C@@H](NC(=O)[C@H](Cc1ccccc1)NC(=O)[C@H](CC(C)C)NC(=O)[C@H](Cc1ccccc1)NC(=O)[C@H](CC(C)C)NC(=O)[C@@H](NC(=O)[C@H](Cc1c[nH]c2ccccc12)NC(=O)[C@H](CC(=O)O)NC(=O)CCOCCOCCOCCOCCNC(=O)CCCC[C@@H]1SC[C@@H]2NC(=O)N[C@@H]21)[C@@H](C)O)C(C)C)C(=O)N[C@@H](Cc1ccccc1)C(=O)N[C@@H](Cc1ccc(O)cc1)C(=O)O [Peptide P89] ({Biotin-PEG4}-DWTLFLFVFNLEWEDLFY-OH; C-terminus assumed), the “cross-reactivity (selectivity of binding, in words)” value was “some level of cross-reactivity”. CC[C@H](C)[C@H](NC(=O)[C@H](CCC(=O)O)NC(=O)[C@H](Cc1ccc(O)cc1)NC(=O)[C@H](Cc1ccc(O)cc1)NC(=O)[C@H](CCSC)NC(=O)[C@H](Cc1c[nH]cn1)NC(=O)[C@H](CCSC)NC(=O)[C@H](Cc1c[nH]c2ccccc12)NC(=O)[C@H](CCCCN)NC(=O)[C@H](CC(=O)O)NC(=O)[C@H](Cc1c[nH]c2ccccc12)NC(=O)[C@H](CCC(=O)O)NC(=O)[C@@H](NC(=O)[C@H](CCCCN)NC(=O)CCOCCOCCOCCOCCNC(=O)CCCC[C@@H]1SC[C@@H]2NC(=O)N[C@@H]21)[C@@H](C)O)C(=O)N[C@@H](Cc1ccccc1)C(=O)N[C@@H](Cc1ccc(O)cc1)C(=O)N[C@@H](CCC(=O)O)C(=O)N[C@@H](CC(=O)O)C(=O)O [Peptide P100] ({Biotin-PEG4}-KTEWDKWMHMYYEIFYED-OH; C-terminus assumed) was tested, and the “cross-reactivity (selectivity of binding, in words)” value was “some level of cross-reactivity”. For CC[C@H](C)[C@H](NC(=O)[C@H](CC(=O)O)NC(=O)[C@H](Cc1ccccc1)NC(=O)[C@H](CC(N)=O)NC(=O)CCOCCOCCOCCOCCNC(=O)CCCC[C@@H]1SC[C@@H]2NC(=O)N[C@@H]21)C(=O)N[C@@H](CC(C)C)C(=O)N[C@@H](CC(C)C)C(=O)N[C@@H](Cc1ccccc1)C(=O)N[C@H](C(=O)N[C@@H](Cc1ccccc1)C(=O)N[C@@H](CC(N)=O)C(=O)N[C@@H](Cc1ccc(O)cc1)C(=O)N[C@@H](CCC(=O)O)C(=O)N[C@@H](CCSC)C(=O)N[C@@H](CCC(=O)O)C(=O)N[C@@H](CC(=O)O)C(=O)N[C@@H](CCCCN)C(=O)N[C@@H](Cc1ccccc1)C(=O)N[C@@H](Cc1ccc(O)cc1)C(=O)O)C(C)C [Peptide P168] ({Biotin-PEG4}-NFDILLFVFNYEMEDKFY-OH; C-terminus assumed), the “cross-reactivity (selectivity of binding, in words)” value was “some level of cross-reactivity”. In the case of CC[C@H](C)[C@H](NC(=O)[C@@H](NC(=O)[C@H](Cc1ccc(O)cc1)NC(=O)[C@H](Cc1ccccc1)NC(=O)[C@H](Cc1ccc(O)cc1)NC(=O)[C@@H](NC(=O)[C@H](CCC(=O)O)NC(=O)[C@H](CCSC)NC(=O)[C@H](Cc1c[nH]c2ccccc12)NC(=O)[C@H](Cc1c[nH]cn1)NC(=O)[C@H](CO)NC(=O)[C@H](Cc1ccccc1)NC(=O)[C@H](CCSC)NC(=O)[C@H](CC(=O)O)NC(=O)[C@H](Cc1c[nH]c2ccccc12)NC(=O)[C@H](CC(=O)O)NC(=O)[C@@H](NC(=O)[C@H](CCCCN)NC(=O)CCOCCOCCOCCOCCNC(=O)CCCC[C@@H]1SC[C@@H]2NC(=O)N[C@@H]21)[C@@H](C)O)[C@@H](C)CC)C(C)C)C(=O)O [Peptide P180] ({Biotin-PEG4}-KTDWDMFSHWMEIYFYVI-OH; C-terminus assumed), the “cross-reactivity (selectivity of binding, in words)” value is reported as “some level of cross-reactivity”.
